Assay results published in doi:10.1101/277434v2 (biorxiv, 2024).

Target: IRAK4 (Homo sapiens, UniProt Q9NWZ3)
Test: biochemical

Sequence of IRAK4 (Q9NWZ3 whole entry): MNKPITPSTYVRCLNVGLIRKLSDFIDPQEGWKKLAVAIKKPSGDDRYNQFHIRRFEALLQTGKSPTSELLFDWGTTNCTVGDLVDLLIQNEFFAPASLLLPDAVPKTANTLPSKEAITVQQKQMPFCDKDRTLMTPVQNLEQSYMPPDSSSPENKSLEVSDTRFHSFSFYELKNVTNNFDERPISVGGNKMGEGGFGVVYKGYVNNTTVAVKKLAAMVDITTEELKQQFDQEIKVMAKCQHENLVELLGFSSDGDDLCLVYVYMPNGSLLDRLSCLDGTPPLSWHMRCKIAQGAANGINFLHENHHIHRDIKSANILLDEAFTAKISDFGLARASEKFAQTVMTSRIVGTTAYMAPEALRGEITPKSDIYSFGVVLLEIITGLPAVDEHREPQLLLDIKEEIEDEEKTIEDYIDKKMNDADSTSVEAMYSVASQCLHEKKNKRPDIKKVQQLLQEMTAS

IC50: 3.4 µM
Structure (SMILES): CN(C)C [TMA]
